{
  "source": "patent US8415285B2",
  "about": "“Composition for the prevention or removal of insoluble salt deposits” (Ecover Coordination Center N.V., priority 2010, dated 2013)",
  "key": {"[1]": {"details": "labeling according to EU legislation; cited from earlier work"}, "[2]": {"details": "cited from earlier work"}, "[3]": {"assay": "Descaling efficiency upon short exposure, weight loss of marble plates (IKW protocol)", "details": "for Average weight loss (g), plates: Example 1, 5% active matter acid solution, 10 seconds immersion + 10 minutes, five plates; for Weight loss plates: Example 4, acid levels 0, 1.5 or 3, solutions prepared 20 hours prior; for Weight difference plates: Example 3, short contact", "protocol": "SÖFW-journal, 120, Jahrgang 13:94) for their descaling efficiency upon short exposure.\nFor each product, five oven-dry marble plates (Carrara marble, 75×150×5 mm, bought at Van Houten Malle) are weighted on a high precision balance and subsequently completely immersed during 10 seconds in a glass beaker holding 950 milliliter of a 5% active matter acid solution. The plates are then removed from the liquor, and put in upright position for 10 minutes during which the acid is allowed for further action. […] The weight loss due to the exposure to the acid is used as a measure for its descaling performance.\n(§1) Solutions were allowed to stand until complete dissolution of the lactide before the descaling test was started.\n(§2) The required volumes for filling the beakers were prepared as 3% active matter solutions, 20 hours prior to the test."}, "[4]": {"assay": "Descaling efficiency upon prolonged contact, weight loss of immersed marble blocks (IPP protocol)", "details": "for Average weight loss (g), blocks: Example 2, 24 hours immersion in the acid solution, duplicate; for Weight loss blocks: Example 4, acid levels 0, 1.5 or 3", "protocol": "as §1, §2"}, "[5]": {"details": "footnote b: as % anhydrous at 25° C.; cited from earlier work"}, "[6]": {"assay": "Dissolution and pH development of lactide in water", "type": "physicochemical", "text": "Slow-release lactide is commercially available from the company Galactic, Belgium."}, "[7]": {"assay": "Descaling efficiency upon prolonged contact, weight loss of immersed marble blocks (IPP protocol)", "details": "Example 3, 5% solution"}, "[8]": {"details": "cited from earlier work", "remark": "listed apart in the source"}},
  "note": "Like-named read-outs stand apart in the source and are kept apart here.",
  "data": [
    {"smiles": "O=C(O)CC(=O)O", "note": "[malonic]", "values": [
      {"measurement": "label", "setting": "[1]", "value": "Xn"}
    ]},
    {"smiles": "O=C(O)CCCC(=O)O", "note": "[glutaric]", "values": [
      {"measurement": "Solubility water 20° C.", "setting": "[2]; pH 7, 20° C.", "value": 50, "unit": "%"},
      {"measurement": "label", "setting": "[1]", "value": "Xi"}
    ]},
    {"smiles": "CC(=O)O", "note": "[Acetic]", "values": [
      {"measurement": "label", "setting": "[1]", "value": "C, Xn"}
    ]},
    {"smiles": "O=C(O)CC(O)C(=O)O", "note": "(stereo not drawn) [Malic acid]", "values": [
      {"measurement": "Average weight loss (g), plates", "setting": "[3]", "value": 0.1457, "unit": "g"},
      {"measurement": "Average weight loss (g), blocks", "setting": "[4]", "value": 8.735, "unit": "g"},
      {"measurement": "Solubility water 20° C.", "setting": "[2]; pH 7, 20° C.", "value": ">80", "unit": "%"},
      {"measurement": "Solubility calcium salt as % anhydrous at 25° C.", "setting": "[5]", "value": 0.8, "unit": "%^b"},
      {"measurement": "label", "setting": "[1]", "value": "Xn"}
    ]},
    {"smiles": "CC(O)C(=O)O", "note": "(stereo not drawn) [Lactic acid]", "values": [
      {"measurement": "Average weight loss (g), plates", "setting": "[3]", "value": 0.1278, "unit": "g"},
      {"measurement": "Weight loss plates", "setting": "[3]", "value": 0.09616, "unit": "g"},
      {"measurement": "Average weight loss (g), blocks", "setting": "[4]", "value": 9.06, "unit": "g"},
      {"measurement": "Weight loss blocks", "setting": "[4]; prolonged contact", "value": 5.2176, "unit": "g"},
      {"measurement": "label", "setting": "[1]", "value": "Xi"}
    ]},
    {"smiles": "CC1OC(=O)C(C)OC1=O", "note": "(stereo not drawn) [Lactide, 3,6-Dimethyl-1,4-dioxane-2,5-dione]", "values": [
      {"measurement": "Weight difference plates", "setting": "[3]; 3% solution", "value": 0.1129, "unit": "g"},
      {"measurement": "Weight difference plates", "setting": "[3]; 5% solution", "value": 0.1365, "unit": "g"},
      {"measurement": "Weight difference blocks", "setting": "[4]; Example 3, 3% solution, prolonged contact", "value": 2.9844, "unit": "g"},
      {"measurement": "Time for complete dissolution", "setting": "[6]; room temperature, while stirring", "value": "at least 3 hours"},
      {"measurement": "Weight difference blocks", "setting": "[7]", "value": 6.0445, "unit": "g"},
      {"measurement": "Solubility water 20° C.", "setting": "[2]; pH 7, 20° C.", "value": "Insol.^a"},
      {"measurement": "label", "setting": "[1]", "value": "Xi"}
    ]},
    {"smiles": "O=C(O)CO", "note": "[Glycolic acid]", "values": [
      {"measurement": "Average weight loss (g), plates", "setting": "[3]", "value": 0.1629, "unit": "g"},
      {"measurement": "Weight loss plates", "setting": "[3]", "value": 0.1115, "unit": "g"},
      {"measurement": "Average weight loss (g), blocks", "setting": "[4]", "value": 2.629, "unit": "g"},
      {"measurement": "Weight loss blocks", "setting": "[4]; prolonged contact", "value": 4.2873, "unit": "g"},
      {"measurement": "label", "setting": "[1]", "value": "C, Xn"}
    ]},
    {"smiles": "O=C(O)/C=C\\C(=O)O", "note": "[maleic]", "values": [
      {"measurement": "Solubility water 20° C.", "setting": "[2]; pH 7", "value": ">40", "unit": "%"}
    ]},
    {"smiles": "O=C(O)CC(O)(CC(=O)O)C(=O)O", "note": "[Citric acid]", "values": [
      {"measurement": "Average weight loss (g), plates", "setting": "[3]", "value": 0.105, "unit": "g"},
      {"measurement": "Weight difference plates", "setting": "[3]; 5% solution", "value": 0.0782, "unit": "g"},
      {"measurement": "Weight loss plates", "setting": "[3]", "value": 0.05778, "unit": "g"},
      {"measurement": "Average weight loss (g), blocks", "setting": "[4]", "value": 3.8461, "unit": "g"},
      {"measurement": "Weight loss blocks", "setting": "[4]; prolonged contact", "value": 2.2648, "unit": "g"},
      {"measurement": "Weight difference blocks", "setting": "[7]", "value": 3.3186, "unit": "g"}
    ]},
    {"smiles": "O=S(=O)(O)O", "note": "[sulfuric]", "values": [
      {"measurement": "label", "setting": "[1]", "value": "C, T"}
    ]},
    {"smiles": "O=CO", "note": "[formic]", "values": [
      {"measurement": "label", "setting": "[1]", "value": "C, Xn"}
    ]},
    {"smiles": "O=C(O)CCC(=O)O", "note": "[Succinic acid]", "values": [
      {"measurement": "Average weight loss (g), plates", "setting": "[3]", "value": 0.1376, "unit": "g"},
      {"measurement": "Weight difference plates", "setting": "[3]; 5% solution", "value": 0.0899, "unit": "g"},
      {"measurement": "Weight loss plates", "setting": "[3]", "value": 0.08734, "unit": "g"},
      {"measurement": "Average weight loss (g), blocks", "setting": "[4]", "value": 9.304, "unit": "g"},
      {"measurement": "Weight loss blocks", "setting": "[4]; prolonged contact", "value": 4.705, "unit": "g"},
      {"measurement": "Weight difference blocks", "setting": "[7]", "value": 7.2479, "unit": "g"},
      {"measurement": "label", "setting": "[1]", "value": "C, Xn"}
    ]},
    {"smiles": "NS(=O)(=O)O", "note": "[sulfamic]", "values": [
      {"measurement": "pKa (first value)", "setting": "[8]", "value": 0.1},
      {"measurement": "label", "setting": "[1]", "value": "C, Xn, N"}
    ]},
    {"smiles": "O=C(O)[C@H](O)[C@@H](O)[C@H](O)[C@H](O)CO", "note": "[gluconic]", "values": [
      {"measurement": "Solubility water 20° C.", "setting": "[2]; pH 7", "value": ">50", "unit": "%"},
      {"measurement": "label", "setting": "[1]", "value": "Xn"}
    ]},
    {"smiles": "O=C(O)/C=C/C(=O)O", "note": "[fumaric]", "values": [
      {"measurement": "Solubility water 20° C.", "setting": "[2]; pH 7", "value": 64, "unit": "%"}
    ]},
    {"smiles": "O=C(O)C(=O)O", "note": "[oxalic]", "values": [
      {"measurement": "label", "setting": "[1]", "value": "C, Xn"}
    ]},
    {"smiles": "CC1OC(=O)C(C)OC1=O", "note": "(stereo not drawn) [slow-release lactide]", "values": [
      {"measurement": "pH of 0.1 w/v % solution after 5 minutes", "setting": "[6]; demineralized water, 25° C., 5 minutes", "value": 3.7},
      {"measurement": "pH of 0.1 w/v % solution after 10 minutes", "setting": "[6]; demineralized water, 25° C., 10 minutes", "value": 3.2},
      {"measurement": "pH of 0.1 w/v % solution after 120 minutes", "setting": "[6]; demineralized water, 25° C., 120 minutes", "value": 2.5}
    ]}
  ]
}
